Assay results as given in publication PMC10367051, “Comprehensive Mechanistic View of the Hydrolysis of Oxadiazole-Based Inhibitors by Histone Deacetylase 6 (HDAC6)” (ACS Chemical Biology, 2023).

Legend:
HDAC6 = target: T1, HDAC6 (Homo sapiens, UniProt Q9UBN7); experiment: Fluorometric HDAC inhibition assay, HDAC6; assay type: biochemical; conditions: purified human protein; Ac-Gly-Ala-[Lys-Ac]-AMC substrate 10 μM; 15 min preincubation
T1 construct: TwinStrep-FLAG-HALO (N, cleaved yes); made in house; host or cells: HEK293/T17
T1 sequence (Q9UBN7 1-1215): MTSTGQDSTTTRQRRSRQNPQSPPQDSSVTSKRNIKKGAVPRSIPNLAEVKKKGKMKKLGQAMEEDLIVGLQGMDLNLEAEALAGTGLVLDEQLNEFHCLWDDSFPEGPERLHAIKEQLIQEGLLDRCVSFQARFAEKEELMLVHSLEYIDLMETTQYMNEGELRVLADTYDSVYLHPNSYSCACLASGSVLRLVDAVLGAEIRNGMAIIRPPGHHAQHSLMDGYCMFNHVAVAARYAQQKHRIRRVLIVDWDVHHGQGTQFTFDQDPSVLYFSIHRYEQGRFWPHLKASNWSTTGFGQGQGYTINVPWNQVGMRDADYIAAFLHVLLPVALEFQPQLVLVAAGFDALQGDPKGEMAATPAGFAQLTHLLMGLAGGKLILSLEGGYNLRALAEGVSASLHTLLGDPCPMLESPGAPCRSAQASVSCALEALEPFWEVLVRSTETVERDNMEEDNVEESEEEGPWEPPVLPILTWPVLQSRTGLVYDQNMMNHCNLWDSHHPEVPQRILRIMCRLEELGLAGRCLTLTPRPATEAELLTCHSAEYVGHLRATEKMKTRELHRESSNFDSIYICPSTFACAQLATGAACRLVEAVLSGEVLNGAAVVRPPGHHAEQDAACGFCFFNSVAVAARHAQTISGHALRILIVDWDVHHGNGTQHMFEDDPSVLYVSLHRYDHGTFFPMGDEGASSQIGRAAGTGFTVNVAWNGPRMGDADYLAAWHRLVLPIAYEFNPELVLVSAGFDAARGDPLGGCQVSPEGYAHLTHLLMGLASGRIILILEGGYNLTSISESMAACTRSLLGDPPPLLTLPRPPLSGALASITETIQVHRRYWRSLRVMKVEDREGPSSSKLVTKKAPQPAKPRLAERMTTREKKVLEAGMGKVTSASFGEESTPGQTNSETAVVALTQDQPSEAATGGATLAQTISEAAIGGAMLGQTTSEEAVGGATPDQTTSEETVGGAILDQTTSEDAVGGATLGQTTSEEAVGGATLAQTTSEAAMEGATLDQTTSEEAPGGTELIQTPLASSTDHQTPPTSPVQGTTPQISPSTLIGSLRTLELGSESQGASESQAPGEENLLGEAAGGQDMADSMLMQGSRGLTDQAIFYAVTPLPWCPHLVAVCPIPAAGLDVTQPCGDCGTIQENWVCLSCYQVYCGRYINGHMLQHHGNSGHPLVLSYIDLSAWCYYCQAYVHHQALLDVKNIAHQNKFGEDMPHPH
Description: Large-scale expression of recombinant human HDACs was carried out as described previously.[32],[37] Briefly, HEK293/T17 cells were transiently transfected with expression pMM222 plasmids comprising N-terminally tagged (TwinStrep-FLAG-HALO tag; Figure S1) HDAC genes using linear poly(ethyleneimine) (PEI, Polysciences Inc.). Cells were harvested three days post-transfection, and cell pellets were resuspended in the lysis buffer (100 mM Tris-HCl, 10 mM NaCl, 5 mM KCl, 2 mM MgCl2, and 10% glycerol at pH 8.0). Cells were disrupted by sonication, cell lysates were cleared by centrifugation, and soluble fusion proteins were first purified by Streptactin affinity chromatography (IBA). For all HDACs but HDACs 1, 10, and 11, the N-terminal tag was cleaved off overnight by the addition of TEV protease (10:1 HDAC/TEV ratio). Size-exclusion chromatography on a Superose 6 column (GE Healthcare Bio-Sciences; running buffer 30 mM HEPES, 140 mM NaCl, 10 mM KCl, 3% glycerol, and 0.25 mM TCEP) was used as the final purification step for all HDAC constructs.
(§1) Optimized fluorometric assays were used to determine inhibition constants of studied compounds against individual HDAC isoforms as described previously.[32] Briefly, reactions were performed in the activity buffer comprising 50 mM HEPES, 140 mM NaCl, and 10 mM KCl at pH 7.4 supplemented with 1 mg mL^–1 bovine serum albumin (BSA), 1 mM tris(2-carboxyethyl)phosphine (TCEP), 10 μM substrates, and optimized concentrations of HDACs. The Ac-Gly-Ala-[Lys-Ac]-7-amino-methylcoumarylamide (AMC) substrate was used to profile HDACs 1, 2, 3, and 6; Boc-[Lys-TFA]-7-amino-methylcoumarylamide was used for HDACs 4, 5, 7, 8, and 9 (both substrates: Bachem); fluorescein-labeled N8-acetylspermidine was used for HDAC10;[32] and an internally quenched TNFα-derived peptide derivative was used for HDAC11.[39] Deacetylation reactions were monitored either by high-performance liquid chromatography (HPLC) (HDAC10) or by quantification of released AMC (λex/λem = 365/440 nm) using a CLARIOstar plate reader (BMG Labtech GmbH).

zHDAC6 (Y745F) = target: T2, zHDAC6 (Y745F) (Danio rerio, UniProt F8W4B7, Y745F); experiment: Inhibition assay, zebrafish HDAC6 catalytic DD2 domain, Y745F mutant; assay type: biochemical
T2 construct: Danio rerio HDAC6 (amino acids 440–798; zHDAC6); His (N, cleaved yes); MBP (N, cleaved yes); made in house; host or cells: RIPL Escherichia coli
T2 sequence (F8W4B7 440-798 Y745F): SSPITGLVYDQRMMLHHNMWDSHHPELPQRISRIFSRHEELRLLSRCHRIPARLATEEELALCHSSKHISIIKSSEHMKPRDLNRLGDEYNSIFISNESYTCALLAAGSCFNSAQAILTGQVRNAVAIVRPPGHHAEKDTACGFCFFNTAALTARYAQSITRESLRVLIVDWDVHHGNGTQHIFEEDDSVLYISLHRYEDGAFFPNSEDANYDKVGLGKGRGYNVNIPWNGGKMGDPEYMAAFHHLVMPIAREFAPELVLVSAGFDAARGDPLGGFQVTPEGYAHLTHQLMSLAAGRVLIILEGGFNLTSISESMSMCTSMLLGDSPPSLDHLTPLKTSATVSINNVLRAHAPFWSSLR
Description: The second catalytic domain of Danio rerio HDAC6 (amino acids 440–798; zHDAC6) was expressed in RIPL Escherichia coli as described previously using the pEC566-zHDAC6 expression vector.[16],[38] Briefly, bacteria were incubated at 37 °C with shaking (250 rpm) until the optical density reached an OD600 = 0.5. Then, the culture was cooled to 18 °C for 1 h, and recombinant protein expression was induced by the addition of 75 μM isopropyl β-D-1-thiogalactopyranoside together with 200 μM ZnSO4. The culture was grown at 18 °C for an additional 18 h and harvested by centrifugation at 5500g for 15 min. The cell pellet was resuspended in the lysis buffer (50 mM phosphate, 300 mM NaCl, 10% glycerol, and 20 mM imidazole at pH 8; 5 mL g^–1 bacterial pellet) and lysed by three passages through EmulsiFlex (Avestin). Cell lysates were centrifuged (15,000g at 4 °C for 20 min), and the fusion protein in the supernatant was purified via Ni-NTA chromatography. Fractions containing the His-MBP-HDAC6 fusion were concentrated to 2 mg mL^–1 and cleaved overnight by the addition of TEV protease (zHDAC6/TEV 1:20 ratio). The cleaved tag and the TEV protease were sequentially removed using amylose (New England Biolabs) and HisTrap columns (Cytiva), and zHDAC6 was further purified by size-exclusion chromatography on a HiLoad Superdex 75 pg column (GE Healthcare Bio-Sciences). Fractions containing zHDAC6 were pooled, concentrated to 10 mg mL^–1, flash-frozen in liquid nitrogen, and stored at −80 °C. The purity of protein preparations was monitored by SDS-PAGE (Figure S2).
The zHDAC6 mutants (Y745F and H574A) were constructed using the Quick-change site-directed mutagenesis protocol with the pEC566-zHDAC6 expression plasmid as a template. Both mutants were expressed and purified as described above for wild-type zHDAC6 (Figure S2).
as §1

Row | Compound | IC50 (HDAC6) [µM] | IC50 (zHDAC6 (Y745F)) [µM]
1 | CS(=O)(=O)N(Cc1ccc(-c2nnc(CF)o2)cn1)c1cccc(Cl)c1 [compound 9] | 0.085 ± 0.0028 | > 20
2 | Cc1nnc(-c2ccc(CN(c3cccc(Cl)c3)S(C)(=O)=O)nc2)o1 [compound 10] | > 100 | 
